We go through five compounds from patent US9433616B2, “Methods and compositions for decreasing saliva production” (priority 2005, dated 2016).

Data set [1] concerns muscarinic receptors in the muscles of the eye. Conditions: cited from earlier work.
The test system of data set [2] is salivation in patients with Parkinson's disease. As to conditions: in vivo; cited from earlier work.
Data set [3] deals with dryness of the mouth in human subjects. As to conditions: in vivo. As for the experimental part:
This was an evaluation of the placebo and drug-containing disks conducted in a closed room while sitting and carrying on an otherwise normal conversation.
No food or drink intake for approximately 2 hours before test. One disk was inserted in the mouth between gum and cheek on the lower right quadrant of mouth.
All sat in a comfortable room and had not eaten for at least one hour before.

Data set [4] has as its system salivary drying in healthy volunteers. Conditions: in vivo.
Procedure: The time of first noticeable dryness in the mouth and the time to complete disintegration of the film were noted. Comments about adverse events, taste, and tolerance were also recorded by the participants.
The secondary aims of this study were to determine: time of first noticeable dryness in the mouth, time to complete disintegration of the film, and the acceptability and tolerance of the bioadhesive buccal films by the subject.
A blinded randomized crossover study in healthy volunteers.
In each treatment, the product was blind labeled.
A thin film was removed from an individually wrapped pouch and placed in the inner cheek opposite the molars nearest to the submandibular gland. It was positioned with the fingers and the mucoadhesive property facilitated its adhesion.
Dissolve period: the dissolve period of the film was noted. It was defined as the time after which the film was no longer felt in the oral cavity.
The volunteer recorded the tolerance to the buccal mucosa and overall feel during testing.
Data set [5] deals with sialorrhea in PD patients. As to conditions: human, in vivo.
Data set [6] relates to Parkinson's Disease (PD) patients suffering from sialorrhea. As to conditions: human, in vivo. The source says: They were instructed to apply the drops to their tongues on an as needed basis.
In data set [7] the test system is Parkinson's Disease (PD) patients complaining of sialorrhea. Conditions: human, in vivo, po. As to the method: The aim was to assess personal impression by the patients of their sialorrhea symptoms, including, drooling, speech performance, and social interference, as well as the presence of side effects, such as blurred vision, confusion, somnolence, tachycardia, hypotension, or any other discomforting sensation. The patients were evaluated for 2 hours in an outpatient clinic while resting in comfortable armchairs. They rated themselves on a visual analog scale by marking a line representing the amount of disability incurred by their sialorrhea both before and after the treatment by responding to the question: “How would you grade the effect of the drops that you were administered on your sialorrhea?”
The patients were fluctuating PD patients evaluated in the ON state in the morning, having eaten no food for one hour before the test. […] The patients were instructed to perform some chewing like movements in order to distribute the drug homogeneously. The patients were instructed to fill the visual-analogical scale 1 hour after drug intake. In addition, they were asked about the latency of the effect, if any, and if the effect persisted before leaving.

Data set [8] relates to excessive sialorrhea in children with developmental disabilities. As to conditions: cited from earlier work.
Data set [9] relates to clozapine-induced sialorrhea. Conditions: in vivo; cited from earlier work.

Structures are written as SMILES.

Take `CN(C)CCOC(=O)C(c1ccccc1)C1(O)CCCC1` (stereo not shown) [cyclopentolate]: in data set [1] (eye drops, some effects may persist for up to several days), the duration of effect is 8 h.
Regarding `CN1[C@@H]2CC[C@H]1C[C@@H](OC(=O)C(CO)c1ccccc1)C2` (stereo partly shown) [atropine], in [2], the “effect after 30 minutes” value was “No effect was noted” and the “time results first observed after initial treatment” value was “three”. In [1] (in vivo), the “time of peak mydriasis effect” value was 30 to 40 min.
In the case of `CCN(Cc1ccncc1)C(=O)C(CO)c1ccccc1` (stereo not shown) [tropicamide, N-ethyl-N-(4-pyridylmethyl) tropamide], the “time local numbness first noticed” value in data set [3] (human) was determined as 20 min. Moreover, in [3], the “change in pupil size” value is reported as “no obvious change in pupil size”. The tolerance result in data set [4] is on record as “acceptable”. In addition, in [5], the side effects entry is “No side effects were observed”. Also, the taste tolerance result in data set [6] was “complained of the taste of the medication”. Further, in data set [7], the “effect on heart rate (tachycardia), confusion, somnolence” value is recorded as “did not affect heart rate (cause tachycardia), confusion, or somnolence”; the photosensitivity complaints entry is recorded as “No complaint of photosensitivity”; the “side effects or complications” value was “None of the patients developed side effects or complications”.
For `C[N+]1(C)CCC(OC(=O)C(O)(c2ccccc2)C2CCCC2)C1` (stereo not drawn) [glycopyrrolate, 3-(α-cyclopentylmandeloy(osy)-1,1-dimethylpyrrolidinium bromide], the “control of excessive sialorrhea” value in [8] was “effective”. In data set [8] (systemic administration), the “treated individuals with substantial adverse systemic side effects requiring discontinuation” value is “approximately 20%”.
`CC(C)[N+]1(C)[C@@H]2CC[C@H]1C[C@@H](OC(=O)C(CO)c1ccccc1)C2` (stereo partly shown) [ipratropium]: in data set [9], the clinical response result is given as “partial yet clinically meaningful response” and the “time until effect of the spray wore off” value is 2 to 8 h.
